Measurements reported in patent US20250281462A1, “THERAPEUTICALLY EFFECTIVE ORAL ADMINISTRATION OF A 2 ARYLBENZIMIDAZOLE” (Tranquis Therapeutics, Inc., priority 2021, published 2025).
“And” between values parts separate entries of the source, which are not always exact repeats. Equal values may be shown once. Read-outs that look alike come from different tables or passages of the source.

Columns and labels:
[1] = Plasma concentrations of TQS-168 and TQS-621 after single oral dose 50 mg/kg in mice, three formulations; type: in vivo; settings: for concentration at 12 h: male, C57BL/6, mouse, plasma, po, read-out: Calculated Concentration in plasma; for concentration at 12 h / Calculated Concentration in plasma: mice
Description: In a second experiment, mice were administered 50 mg/kg TQS-168 by oral gavage. For Group 1, TQS-168 was prepared at a concentration of 5.0 mg/mL in a suspension with […] in PBS. For Group 2, TQS-168 was prepared at a concentration of 5.0 mg/mL as a solution in 10 polyethylene glycol (PEG) 400|30 Kleptose (Roquete)|60% water.
Plasma exposures for Group 1 mice (ng/mL) are presented in Table 2 and for Group 2 mice in Table 3.
C57BL/6 male mice were administered a single dose of TQS-168 at 50 mg/kg using one of three formulations: Group 1-5.0 mg/ml suspension in 0.5% methylcellulose in PBS; Group 2-5.0 mg/ml solution in PEG400 (Fluka) 10%|Kleptose (Roquette) 30%|sterile water 60%; Group 3-5.0 mg/ml suspension in Labrafil M 1944 CS (Gattefosse) 30%|Masine CC (Gattefosse) 5%|Miglyol 812N 10%|sterile water 55%.
Plasma concentrations of TQS-168 and TQS-621 were measured overtime.

[2] = Plasma and brain concentrations after single oral dose 45 mg/kg in mice; type: in vivo; settings: for Kp: brain, 45 mg/kg, mice, 45 mg/kg p.o.
Description: Mice were administered a single oral dose of 45 mg/kg TQS-168. TQS-168 was prepared at a concentration of 5.0 mg/mL as a solution in 10% polyethylene glycol (PEG) 400|130% Kleptose (Roquette) 60% water.
Concentrations in plasma and in brain were measured at various timepoints and various pharmacokinetic parameters were calculated, as shown below in Tables 4 and 5 and in FIGS. 19A and 19B.
TQS-168 was prepared as a 4.5 mg/ml solution in PEG400 10%| Kleptose 30% sterile water 60%. A single oral dose of 45 mg/kg was administered. Concentrations of TQS-621 were measured in plasma and brain over time.

[3] = test system: murine models of neurodegenerative diseases; settings: mice, oral 25-50 mg/kg; Parkinson's disease, Alzheimer's disease, ALS models; cited from earlier work
[4] = mice plasma, TQS-168 50 mg/kg p.o., Group 1 (suspension, 0.5% methylcellulose in PBS), individual mouse, 50 mg/kg
[5] = mice plasma, TQS-168 50 mg/kg p.o., Group 2 (solution, PEG400/Kleptose/water), individual mouse, 50 mg/kg
[6] = mice plasma, TQS-168 50 mg/kg p.o., Group 3 (suspension, Labrafil/Masine/Miglyol/water), individual mouse, 50 mg/kg
[7] = mice brain, TQS-168 45 mg/kg p.o., solution PEG 400/Kleptose/water
[8] = mice plasma, TQS-168 45 mg/kg p.o., solution PEG 400/Kleptose/water
[9] = mouse, po, mice brain, TQS-168 45 mg/kg p.o., solution PEG 400/Kleptose/water
[10] = mouse, po, mice plasma, TQS-168 45 mg/kg p.o., solution PEG 400/Kleptose/water

Work on `CC(C)(C)c1ccc(-c2nc3ccccc3[nH]2)cc1` [TQS-168, 2-(4-tert-butylphenyl)-1H-benzimidazole] yielded a concentration at 12 h ([1]; 50 mg/kg, 50 mg/kg p.o., Group 2 (solution, PEG 400/Kleptose/water), 12 hr, individual mouse) of 0.185 µg/mL, a concentration at 12 h ([1]; 50 mg/kg, 50 mg/kg p.o., Group 2 (solution, PEG 400/Kleptose/water), 12 hr, mean) of 0.161 µg/mL and a Cmax ([1]; mice plasma, 50 mg/kg p.o., Group 2 (solution), 50 mg/kg, read-out: Cmax) of 7.9 µM. For the same molecule, the AUCInf [1, 4] was 5.085 µg·h/mL and 14.196 µg·h/mL and 5.052 µg·h/mL, the AUClast [1, 4] was 8.046 µg·h/mL and 4.822 µg·h/mL and the Cmax [1, 4] was 1.38 µg/mL and 0.704 µg/mL. The t1/2 [1, 4] was 1.74 h and 9.47 h and 1.70 h, the AUCInf [1, 5] was 11.411 µg·h/mL and 11.446 µg·h/mL and the AUClast [1, 5] was 11.058 µg·h/mL and 10.525 µg·h/mL. For the same molecule, the Cmax [1, 5] was 2.39 µg/mL and 2.07 µg/mL, the t1/2 [1, 5] was 2.22 h and 3.41 h and the AUCInf [1, 6] was 4.336 µg·h/mL and 3.877 µg·h/mL. For the same molecule, the AUClast [1, 6] was 3.924 µg·h/mL and 3.753 µg·h/mL, the Cmax [1, 6] was 0.752 µg/mL and 0.42 µg/mL and the Tmax [1, 6] was 8 h. For the same molecule, the t1/2 [1, 6] was 2.23 h and 1.43 h, the Cmax ([1]; mice plasma, TQS-168 50 mg/kg p.o., Group 3 (suspension, Labrafil/Masine/Miglyol/water), mean, 50 mg/kg) was 0.594 µg/mL and the “Calculated Concentration in plasma” value ([1]; 50 mg/kg p.o., Group 1 (suspension, methylcellulose in PBS), 0.25 hr, individual mouse, 50 mg/kg) was 887 ng/mL and 485 ng/mL. The “Calculated Concentration in plasma” value ([1]; 50 mg/kg p.o., Group 1 (suspension, methylcellulose in PBS), 0.5 hr, individual mouse, 50 mg/kg) was 848 ng/mL and 1380 ng/mL and 619 ng/mL, the “Calculated Concentration in plasma” value ([1]; 50 mg/kg p.o., Group 1 (suspension, methylcellulose in PBS), 1 hr, individual mouse, 50 mg/kg) was 1310 ng/mL and 704 ng/mL and the “Calculated Concentration in plasma” value ([1]; 50 mg/kg p.o., Group 1 (suspension, methylcellulose in PBS), 2 hr, individual mouse, 50 mg/kg) was 839 ng/mL and 1050 ng/mL and 440 ng/mL. The “Calculated Concentration in plasma” value ([1]; 50 mg/kg p.o., Group 1 (suspension, methylcellulose in PBS), 4 hr, individual mouse, 50 mg/kg) was 479 ng/mL and 391 ng/mL, the “Calculated Concentration in plasma” value ([1]; 50 mg/kg p.o., Group 1 (suspension, methylcellulose in PBS), 8 hr, individual mouse, 50 mg/kg) was 254 ng/mL and 603 ng/mL and 480 ng/mL and the “Calculated Concentration in plasma” value ([1]; 50 mg/kg p.o., Group 1 (suspension, methylcellulose in PBS), 12 hr, individual mouse, 50 mg/kg) was 18.0 ng/mL and 450 ng/mL and 93.9 ng/mL. For the same molecule, the “Calculated Concentration in plasma” value ([1]; 50 mg/kg p.o., Group 1 (suspension, methylcellulose in PBS), 24 hr, individual mouse) was “BLOQ”, the “Calculated Concentration in plasma” value ([1]; 50 mg/kg p.o., Group 2 (solution, PEG 400/Kleptose/water), 0.25 hr, individual mouse, 50 mg/kg) was 874 ng/mL and 1170 ng/mL and the “Calculated Concentration in plasma” value ([1]; 50 mg/kg p.o., Group 2 (solution, PEG 400/Kleptose/water), 0.5 hr, individual mouse, 50 mg/kg) was 2070 ng/mL and 1860 ng/mL. For the same molecule, the “Calculated Concentration in plasma” value ([1]; 50 mg/kg p.o., Group 2 (solution, PEG 400/Kleptose/water), 1 hr, individual mouse, 50 mg/kg) was 2390 ng/mL and 2070 ng/mL, the “Calculated Concentration in plasma” value ([1]; 50 mg/kg p.o., Group 2 (solution, PEG 400/Kleptose/water), 2 hr, individual mouse, 50 mg/kg) was 1830 ng/mL and 1630 ng/mL and the “Calculated Concentration in plasma” value ([1]; 50 mg/kg p.o., Group 2 (solution, PEG 400/Kleptose/water), 4 hr, individual mouse, 50 mg/kg) was 1330 ng/mL and 949 ng/mL. For the same molecule, the “Calculated Concentration in plasma” value ([1]; 50 mg/kg p.o., Group 2 (solution, PEG 400/Kleptose/water), 8 hr, individual mouse, 50 mg/kg) was 329 ng/mL and 579 ng/mL, the “Calculated Concentration in plasma” value ([1]; 50 mg/kg p.o., Group 2 (solution, PEG 400/Kleptose/water), 12 hr, individual mouse, 50 mg/kg) was 110 ng/mL and 187 ng/mL and the “Calculated Concentration in plasma” value ([1]; 50 mg/kg p.o., Group 2 (solution, PEG 400/Kleptose/water), 24 hr, individual mouse) was “BLOQ”. The AUCExtr [2, 7] was 0.308%, the AUCInf [2, 7] was 24668 ng·h/g and the AUCInf/D [2, 7] was 548 kg·ng·h/g/mg. The AUClast ([2]; mice brain, TQS-168 45 mg/kg p.o., solution PEG 400/Kleptose/water, last time point 24 hr) was 24592 ng·h/g, the AUCExtr [2, 8] was 0.188% and the AUCInf/D [2, 8] was 302 kg·ng·h/mL/mg. The Kp ([2]; mouse, po, read-out: Brain-to-plasma AUC ratio) was 1.81, the Kp ([2]; mouse, po, read-out: Brain-to-plasma Cmax ratio) was 1.84 and the Cmax [2, 9] was 4260 ng/g. The MRT inf [2, 9] was 3.45 h, the Tmax [2, 9] was 1 h and the half-life [2, 9] was 3.66 h. The AUC(0-inf) [2, 10] was 13.6 µg·h/mL, the Cmax [2, 10] was 2.31 µg/mL and the MRT inf [2, 10] was 3.35 h. The Tmax [2, 10] was 0.5 h, the half-life [2, 10] was 3.26 h and the AUC(0-t) ([2]; mouse, po, mice plasma, TQS-168 45 mg/kg p.o., solution PEG 400/Kleptose/water, last time point 24 hr) was 13.6 µg·h/mL. The “myeloid-mediated inflammation and disease severity” value [3] was “suppress myeloid-mediated inflammation and reduce disease severity”.
